Experimental findings from PMC8202924, “Emodepside targets SLO-1 channels of Onchocerca ochengi and induces broad anthelmintic effects in a bovine model of onchocerciasis” (PLoS Pathogens, 2021) are described below.

Like-named read-outs stand apart in the source and are kept apart here.

For data set [1] the following is noted: for Rumen contraction: over four days after treatment, from 1 contraction/min. The text has this: Four non-pregnant, non-lactating cows naturally infected with O. ochengi were purchased from farmers in the Vina Division of the Adamawa Region and acclimatized at the IRAD Wakwa site for two weeks before the start of the trial. Cows were 3–6 years old and weighed 185–300 kg. They were housed in a 35 m^2 enclosure at night and fed with cotton seed cake (2 g/kg bodyweight) in the morning before grazing them on a 1 ha Brachiaria ruziziensis paddock between 9 am and 4 pm daily. Water and salt were supplied ad libitum when housed. Each cow was randomly allocated (by ear-tag number using an online research randomizer [available at https://www.randomizer.org]) to receive a single low dose of emodepside 0.15 mg/kg, a single high dose of emodepside 0.75 mg/kg, a low dose twice (emodepside 0.15 mg/kg on two consecutive days), or vehicle only (solketal). Prior to treatment, the cows were sedated with xylazine hydrochloride (Rompun). Verum or vehicle was administered IV into the jugular vein using a perfusion apparatus (Braun Perfusor Space) following an identical protocol to the Holstein pre-study described above.

Data set [2] has as its system Onchocerca ochengi adult female worms. The data set can be described thus: MTT assay for metabolic activity of worms from nodules. The note with it: MRSM, 4 mg/kg every other day for 3 days; day 550. Format: in vivo. As for the experimental part:
(§1) Worms from a second unfixed nodule (at the same timepoints listed above) were subjected to a 3-(4,5-dimethylthiazol-2-yl)-2,5-diphenyltetrazolium bromide (MTT) assay for metabolic activity, in which the insoluble formazan product was dissolved in DMSO and quantified colorimetrically at 620 nm in a microplate reader (model LT4500, Labtech, Heathfield, East Sussex, UK). Finally, dermal microfilarial densities were determined by incubation of skin biopsies (in triplicate per animal per timepoint) and normalized to 100 mg skin [59].

Data set [3] shares this test system. The data set is described as follows: Ex vivo visual motility assessment of adult female worms from nodules. The conditions noted are these: MRSM, 4 mg/kg every other day for 3 days. The class given is in vivo. How it is done:
(§2) Tattooed nodules were removed under local anesthesia (lidocaine-epinephrine) on study days -1, 90, 180–190, 270–290, 360 and 550 in a randomized order as previously described. Nodules were trimmed of excess tissue and up to four nodules per animal were processed separately as follows: (1) stored frozen at –80°C for PK analysis (up to day 14 only); (2) injected in toto with 10% neutral-buffered formalin and stored at 4°C for histopathology (up to day 290 only); or (3) dissected immediately in phosphate-buffered saline to separate adult male and female worms. The anterior end of the female worm (which even in viable specimens is the only motile part of the parasite) was removed from the worm mass and incubated alongside intact male worms for 30 min at 37°C for visual motility assessment on a three-point scale. The remaining portion of the female worm mass was subjectively scored for fecundity on a four-point scale (0, uteri empty or worm structure degraded; 1, low; 2, intermediate; 3, normal) by examining the uterine contents microscopically in situ. This was followed by a fully quantitative embryogram to enumerate oocytes, embryonic stages and intrauterine Mf as described previously.
The second class of PD endpoint considered was worm motility, which was recorded as a three-class categorical variable and quantified here as a fraction of normal worm motility. First, a linear model of decrease in motility per dose group was established with a study-wide mean motility at day –1: motilitydose_group,t=meanmotilityday−1−slopedose_group*t (5)

Data set [4] has as its system Onchocerca ochengi microfilariae. The data set can be described thus: Dermal microfilarial density in naturally infected cattle. Format: in vivo. The conditions noted are these: MRSM, 4 mg/kg every other day for 3 days. How it is done: By group, the geometric mean Mf load per 100 mg skin ranged from 100 to 500 (Table 1); two animals found to be negative for skin Mf were distributed in different groups. Eighteen preselected nodules per animal were marked with tattoo ink, and their positions were recorded on a hardcopy ‘hide map’ and by digital video [57]. All assessments of drug efficacy were conducted by individuals blinded to the treatment groups. The study was conducted unmasked. All study personnel provided a signed declaration to conduct the study according to the specified protocol. Verum or vehicle was administered as described in the dose confirmation study.
as §1

For data set [5], the system named is Onchocerca ochengi adult male worms. The data set can be described thus: Ex vivo visual motility assessment of adult male worms from nodules. Format: in vivo. The note with it: MRSM, 4 mg/kg every other day for 3 days; day 550; n = 1. How it is done:
as §2
The second class of PD endpoint considered was worm motility, which was recorded as a three-class categorical variable and quantified here as a fraction of normal worm motility. […]

Data set [6] concerns Onchocerca ochengi microfilariae. The data set is described as follows: Dermal microfilarial load (area under the density-time curve). Format: in vivo. The conditions noted are these: MRSM, 4 mg/kg every other day for 3 days; vs placebo. From the text: Here, the null hypothesis, H0, is that the parameter m is not different to 0. If H0 can be rejected, a concentration-dependent effect of emodepside can be assumed. The alpha level selected for statistical significance was 5%. We considered three PD endpoints, a) uterine contents (with oocytes, developing embryonic stages, normal intrauterine Mf and degenerate intrauterine Mf considered separately), b) skin Mf load, and c) male and female motility (separately). Mf load is defined as the area under the curve of observed counts over time according to Eq 4: Mfload=∑i=2nMfdensityi+Mfdensityi−1/2*ti−ti−1 (4) per individual treated animal. To increase the robustness of the analysis, only animals presenting a skin Mf load of ≥100/100 mg skin at day -1 were included.
The same principle was applied to the analysis of the uterine contents. In order to test a dose-dependent effect, and an effect over placebo, the log load of uterine contents or Mf was used as the PD endpoint E in Eq 3, and exposure C was the sum of doses. Over all doses and individual animals, an effect size (m) and corresponding statistics were calculated using R’s lm function.

`CC(C)C[C@H]1C(=O)O[C@H](Cc2ccc(N3CCOCC3)cc2)C(=O)N(C)[C@@H](CC(C)C)C(=O)O[C@H](C)C(=O)N(C)[C@@H](CC(C)C)C(=O)O[C@H](Cc2ccc(N3CCOCC3)cc2)C(=O)N(C)[C@@H](CC(C)C)C(=O)O[C@H](C)C(=O)N1C` [emodepside]: the Adverse effects result in data set [1] (0.15 mg/kg IV, over 1 h following administration) is “mild muscular tremors and salivation”. The Rumen contraction in data set [1] (0.15 mg/kg IV) stood at 1.5 contractions/min; in data set [1] (0.75 mg/kg IV), 2 contractions/min. The compound further displayed a Heart rate in data set [1] (0.75 mg/kg IV, 6 h post treatment, increasing from 72 bpm, normal on day 4) of 80 bpm. The Blood glucose concentration was 158 to 200 mg/dL in data set [1] (0.75 mg/kg IV, 8 h after treatment) and 61 mg/dL in data set [1] (0.75 mg/kg IV, by 24 h (within the normal range)). The “Temperature and respiratory rates” value in data set [1] (0.15 and 0.75 mg/kg IV) is recorded as “not affected”.
Take `NCCS[As](SCCN)c1ccc(Nc2nc(N)nc(N)n2)cc1` [melarsomine]: the “MTT reduction, worms recovered” value in data set [2] is on record as “no intact worms were recovered”. The Female worm motility entry in data set [3] (by day 90, all nodules) was “reduced to zero”. Also, the “Fraction of normal adult female worm motility” value was found to be 0% in data set [3] (day 90, n = 7); 0% in data set [3] (day 185, n = 7); 0% in data set [3] (day 275, n = 7); 0% in data set [3] (day 360, n = 2); 0% in data set [3] (day 550, n = 2). For the same compound, in data set [4], the “Mf density over time” value is listed as “complete clearance after one year”. In addition, the “Fraction of normal adult male worm motility” value in data set [5] is 0%. In data set [6], the “Median reduction in Mf load” value stood at 96%.
